The values that follow are results of earlier work, collected in PubChem BioAssay AID1259409 (Chemical Carcinogenesis Research Information System (CCRIS), 2018).

The series concerns rodent chemically induced tumor inhibition, incidence and multiplicity. As to the kind of experiment: CCRIS tumor inhibitor studies. The settings on record: Route [Inhibitor]: ORAL, Promoter: NONE USED.

`CC1=C(/C=C/C(C)=C/C=C/C(C)=C/C(=O)Nc2ccc(O)cc2)C(C)(C)CCC1`: the “tumour outcome (control, treated, inhibition, significance)” value is, setting by setting: (Carcinogen: N-NITROSOBIS(2-OXYPROPYL)AMINE, 60599-38-4, Dose [Inhibitor]: 0.05, 0.1 OR 0.2 MILLIMOLAR/KG DIET FOR 32 WK STARTING 1 WK AFTER THE CARCINOGEN DOSE (STUDY DURATION: 33 WK), Species: HAMSTER, Strain/Sex: SYRIAN/MALE, Target Tissue: Type of Lesion: LUNG: ADENOMA, Dose [Carcinogen]: 40 MG/KG ONCE) 1/12 (8%), 2/21 (10%), -25%, not significant; (Carcinogen: N-NITROSOBIS(2-OXYPROPYL)AMINE, 60599-38-4, Dose [Inhibitor]: 0.05, 0.1 OR 0.2 MILLIMOLAR/KG DIET FOR 32 WK STARTING 1 WK AFTER THE CARCINOGEN DOSE (STUDY DURATION: 33 WK), Species: HAMSTER, Strain/Sex: SYRIAN/MALE, Target Tissue: Type of Lesion: PANCREAS: ADENOMA, Dose [Carcinogen]: 40 MG/KG ONCE) 12/12 (100%), 21/21 (100%), 0%, not significant; (Carcinogen: N-NITROSOBIS(2-OXYPROPYL)AMINE, 60599-38-4, Dose [Inhibitor]: 0.05, 0.1 OR 0.2 MILLIMOLAR/KG DIET FOR 32 WK STARTING 1 WK AFTER THE CARCINOGEN DOSE (STUDY DURATION: 33 WK), Species: HAMSTER, Strain/Sex: SYRIAN/MALE, Target Tissue: Type of Lesion: PANCREAS: CARCINOMA, Dose [Carcinogen]: 40 MG/KG ONCE) 6/12 (50%), 13/21 (62%), -24%, not significant; (Carcinogen: NONE USED, Dose [Inhibitor]: 1 MILLIMOLAR IN DIET DAILY FOR 39 WK STARTING AT 2 MO OF AGE THROUGH THE END OF THE STUDY (STUDY DURATION: 39 WK), Species: MOUSE, Strain/Sex: C3H/FEMALE, Target Tissue: Type of Lesion: MAMMARY GLAND: ADENOCARCINOMA) 83/98 (85%), 71/100 (71%), 16%, not significant; (Carcinogen: NONE USED, Dose [Inhibitor]: 1 MILLIMOLAR IN DIET FOR 14 WK STARTING AT 4-6 MO OF AGE THROUGH THE END OF THE STUDY (STUDY DURATION: 14 WK), Species: MOUSE, Strain/Sex: C3H/FEMALE, Target Tissue: Type of Lesion: MAMMARY GLAND: ADENOCARCINOMA) 54/78 (69%), 62/78 (80%), -16%, not significant; (Carcinogen: NONE USED, Dose [Inhibitor]: 1 MILLIMOLAR IN DIET FOR 39 WK STARTING AT 2 MO OF AGE THROUGH THE END OF THE STUDY (STUDY DURATION: 39 WK), Species: MOUSE, Strain/Sex: C3H/FEMALE, Target Tissue: Type of Lesion: MAMMARY GLAND: ADENOCARCINOMA) 83/98 (85%), 71/100 (71%), 16%, not significant. The “tumour outcome (control, treated, inhibition, significance)” value runs as follows: (Carcinogen: NONE USED, Dose [Inhibitor]: 1.0 MM/KG IN DIET DAILY FOR 14 WK STARTING AT 4-6 MO OF AGE THROUGH THE END OF THE STUDY (STUDY DURATION: 14 WK), Species: MOUSE, Strain/Sex: C3H/FEMALE, Target Tissue: Type of Lesion: MAMMARY GLAND: ADENOCARCINOMA) 54/78 (69%), 62/78 (80%), -16%, not significant; (Carcinogen: NONE USED, Dose [Inhibitor]: 783 MG/KG DIET DAILY FOR 54 WK (STUDY DURATION: 54 WK), Species: RAT, Strain/Sex: ACI/MALE, Target Tissue: Type of Lesion: ADRENAL GLAND: TUMOR) 15/43 (35%), 18/43 (42%), -20%, not significant; (Carcinogen: NONE USED, Dose [Inhibitor]: 783 MG/KG DIET DAILY FOR 54 WK (STUDY DURATION: 54 WK), Species: RAT, Strain/Sex: ACI/MALE, Target Tissue: Type of Lesion: PANCREAS: ADENOMA) 1/40 (3%), 5/44 (11%), -267%, not significant; (Carcinogen: NONE USED, Dose [Inhibitor]: 783 MG/KG DIET DAILY FOR 54 WK (STUDY DURATION: 54 WK), Species: RAT, Strain/Sex: ACI/MALE, Target Tissue: Type of Lesion: PITUITARY GLAND: ADENOMA OR CARCINOMA) 20/39 (51%), 19/42 (45%), 12%, not significant; (Carcinogen: NONE USED, Dose [Inhibitor]: 783 MG/KG DIET DAILY FOR 54 WK (STUDY DURATION: 54 WK), Species: RAT, Strain/Sex: ACI/MALE, Target Tissue: Type of Lesion: PROSTATE GLAND: ADENOMA OR CARCINOMA) 19/44 (43%), 11/40 (28%), 35%, not significant; (Carcinogen: NONE USED, Dose [Inhibitor]: 783 MG/KG DIET DAILY FOR 54 WK (STUDY DURATION: 54 WK), Species: RAT, Strain/Sex: ACI/MALE, Target Tissue: Type of Lesion: SKIN: TUMORS) 12/45 (27%), 3/45 (7%), 74%, p<0.025. For the same compound, where the note is “Carcinogen: NONE USED, Dose [Inhibitor]: 783 MG/KG DIET DAILY FOR 54 WK (STUDY DURATION: 54 WK), Species: RAT, Strain/Sex: ACI/MALE, Target Tissue: Type of Lesion: TESTES: INTERSTITIAL CELL TUMOR”, the “tumour outcome (control, treated, inhibition, significance)” value is reported as 21/45 (47%), 24/44 (55%), -17%, not significant.
